Reference: US20250017914A1, “6-AZA-QUINOLINE DERIVATIVES AND RELATED USES” (Black Diamond Therapeutics, Inc., priority 2021, published 2025)

Molecular target: T1, BaF3 BRAF-KIAA1549 fusion cells (Homo sapiens, UniProt P15056)
T1 construct: The BRAF-KIAA1549 fusion mutant was subcloned into pMXs-IRES-Blasticidin (RTV-016, Cell Biolabs, San Diego, CA); No tag given; Q9HCM3 (UPF0606 protein KIAA1549)
Test: BaF3 BRAF-KIAA1549 fusion cell proliferation assay (CellTiterGlo, 96 hours)
Type: cell-based
Conditions: Table A2
Outline: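 BaF3 cells retrovirally transduced with BRAF-KIAA1549 fusion and blasticidin-selected were plated at 7×10^4 c/well in RPMI, 10% heat-inactivated FBS, 1% L-glutamine, and exposed to compound for 96 hours. Growth was read as ATP content by CellTiterGlo luminescence. IC50 was fitted by Levenberg-Marquardt, normalised to DMSO-treated cells.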

T1 sequence (P15056 whole entry, change not shown, the tested form may be a part): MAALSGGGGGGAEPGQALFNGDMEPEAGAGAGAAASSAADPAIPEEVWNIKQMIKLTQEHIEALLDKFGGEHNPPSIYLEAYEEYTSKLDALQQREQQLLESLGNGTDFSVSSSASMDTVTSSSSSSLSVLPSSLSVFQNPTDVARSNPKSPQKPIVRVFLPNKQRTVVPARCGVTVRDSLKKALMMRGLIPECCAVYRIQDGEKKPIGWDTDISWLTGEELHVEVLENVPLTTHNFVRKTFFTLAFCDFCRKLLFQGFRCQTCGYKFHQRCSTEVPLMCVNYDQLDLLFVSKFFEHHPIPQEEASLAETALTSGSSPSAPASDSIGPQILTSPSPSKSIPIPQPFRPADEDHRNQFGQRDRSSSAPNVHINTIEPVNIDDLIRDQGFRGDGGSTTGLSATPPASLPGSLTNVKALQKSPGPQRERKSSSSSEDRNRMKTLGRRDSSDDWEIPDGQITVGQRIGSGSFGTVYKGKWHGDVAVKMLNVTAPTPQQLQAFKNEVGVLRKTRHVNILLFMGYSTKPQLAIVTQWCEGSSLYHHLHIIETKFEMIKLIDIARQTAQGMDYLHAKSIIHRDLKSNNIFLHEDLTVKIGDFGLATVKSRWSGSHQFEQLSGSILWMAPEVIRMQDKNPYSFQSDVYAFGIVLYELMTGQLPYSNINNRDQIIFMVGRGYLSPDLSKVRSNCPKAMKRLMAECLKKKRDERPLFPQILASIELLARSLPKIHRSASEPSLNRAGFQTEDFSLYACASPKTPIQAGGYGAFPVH

Compound	GI50
CNc1cc2ncc(-c3cc(NC(=O)c4noc5c4CC(F)(F)CC5)cnc3C)cc2cn1 [Compound 247, 5,5-difluoro-N-(6-methyl-5-(7-(methylamino)-1,6-naphthyridin-3-yl)pyridin-3-yl)-4,5,6,7-tetrahydrobenzo[d]isoxazole-3-carboxamide]	20 to 100 nM
CNCC(F)(F)c1cccc(C(=O)Nc2cnc(C)c(-c3cnc4cc(NC)ncc4c3)c2)n1 [Compound 250, 6-(1,1-difluoro-2-(methylamino)ethyl)-N-(6-methyl-5-(7-(methylamino)-1,6-naphthyridin-3-yl)pyridin-3-yl)picolinamide]	≥ 500 nM
CNc1cc2ncc(-c3cc(NC(=O)c4cnc5n4CC(C(F)F)CC5)cnc3C)cc2cn1 (stereo not drawn) [Compound 251, 6-(difluoromethyl)-N-(6-methyl-5-(7-(methylamino)-1,6-naphthyridin-3-yl)pyridin-3-yl)-5,6,7,8-tetrahydroimidazo[1,2-a]pyridine-3-carboxamide]	100 to 500 nM
CNc1cc2ncc(-c3cc(NC(=O)c4n[nH]c5c4C[C@@H]4C[C@H]54)cnc3C)cc2cn1 [Compound 252, (4aS,5aS)—N-(6-methyl-5-(7-(methylamino)-1,6-naphthyridin-3-yl)pyridin-3-yl)-4,4a,5,5a-tetrahydro-1H-cyclopropa[4,5]cyclopenta[1,2-c]pyrazole-3-carboxamide]	20 to 100 nM
CNc1cc2ncc(-c3cc(NC(=O)c4n[nH]c5c4C[C@H]4C[C@@H]54)cnc3C)cc2cn1 [Compound 253, (4aR,5aR)—N-(6-methyl-5-(7-(methylamino)-1,6-naphthyridin-3-yl)pyridin-3-yl)-4,4a,5,5a-tetrahydro-1H-cyclopropa[4,5]cyclopenta[1,2-c]pyrazole-3-carboxamide]	20 to 100 nM
CNc1cc2ncc(-c3cc(NC(=O)c4noc5c4CN(C(C)C)CC5)cnc3C)cc2cn1 [Compound 254, 5-isopropyl-N-(6-methyl-5-(7-(methylamino)-1,6-naphthyridin-3-yl)pyridin-3-yl)-4,5,6,7-tetrahydroisoxazolo[4,5-c]pyridine-3-carboxamide]	100 to 500 nM
CNc1cc2ncc(-c3cc(NC(=O)c4cc(C(C)(C)C(N)=O)ccn4)ccc3C)cc2cn1 [Compound 255]	20 to 100 nM
CNc1cc2ncc(-c3cc(NC(=O)c4nccc(C(C)C)c4Cl)cnc3C)cc2cn1 [Compound 256, 3-chloro-4-isopropyl-N-(6-methyl-5-(7-(methylamino)-1,6-naphthyridin-3-yl)pyridin-3-yl)picolinamide]	20 to 100 nM
CNc1cc2ncc(-c3cc(NC(=O)c4noc5c4CC(C)(C)CC5)cnc3C)cc2cn1 [Compound 257, 5,5-dimethyl-N-(6-methyl-5-(7-(methylamino)-1,6-naphthyridin-3-yl)pyridin-3-yl)-4,5,6,7-tetrahydrobenzo[d]isoxazole-3-carboxamide]	20 to 100 nM
CCC(OC)c1ccnc(C(=O)Nc2cnc(C)c(-c3cnc4cc(NC)ncc4c3)c2)c1 (stereo not drawn) [Compound 260, 4-(1-methoxypropyl)-N-(6-methyl-5-(7-(methylamino)-1,6-naphthyridin-3-yl)pyridin-3-yl)picolinamide]	20 to 100 nM
CNc1cc2ncc(-c3cc(NC(=O)c4n[nH]c5c4CC(C)CC5)ccc3C)cc2cn1 (stereo not drawn) [Compound 261, 5-methyl-N-(4-methyl-3-(7-(methylamino)-1,6-naphthyridin-3-yl)phenyl)-4,5,6,7-tetrahydro-1H-indazole-3-carboxamide]	< 20 nM
CNc1cc2ncc(-c3cc(NC(=O)c4n[nH]c5c4CCCC5(C)C)ccc3C)cc2cn1 [Compound 262, 7,7-dimethyl-N-(4-methyl-3-(7-(methylamino)-1,6-naphthyridin-3-yl)phenyl)-4,5,6,7-tetrahydro-1H-indazole-3-carboxamide]	20 to 100 nM
CNc1cc2ncc(-c3cc(NC(=O)c4c[nH]c5ccc(C)cc45)ccc3C)cc2cn1 [Compound 263, 5-methyl-N-(4-methyl-3-(7-(methylamino)-1,6-naphthyridin-3-yl)phenyl)-1H-indole-3-carboxamide]	< 20 nM
CNc1cc2ncc(-c3cc(NC(=O)c4n[nH]c5c4C[C@H](C)O[C@@H]5C)ccc3C)cc2cn1 [Compound 264, (5S,7R)-5,7-dimethyl-N-(4-methyl-3-(7-(methylamino)-1,6-naphthyridin-3-yl)phenyl)-1,4,5,7-tetrahydropyrano[3,4-c]pyrazole-3-carboxamide]	20 to 100 nM
CNc1cc2ncc(-c3cc(NC(=O)c4cnn5c4CC(C)CC5)ccc3C)cc2cn1 (stereo not drawn) [Compound 265, 5-methyl-N-(4-methyl-3-(7-(methylamino)-1,6-naphthyridin-3-yl)phenyl)-4,5,6,7-tetrahydropyrazolo[1,5-a]pyridine-3-carboxamide]	< 20 nM
CNc1cc2ncc(-c3cc(NC(=O)c4c[nH]c5c4CC(C)CC5)ccc3C)cc2cn1 (stereo not drawn) [Compound 266, 5-methyl-N-(4-methyl-3-(7-(methylamino)-1,6-naphthyridin-3-yl)phenyl)-4,5,6,7-tetrahydro-1H-indole-3-carboxamide]	20 to 100 nM
CNc1ncc2cc(-c3cc(NC(=O)c4ccnc(C5(F)CC5)c4)ccc3C)cnc2c1Cl [Compound 269, N-[3-[8-chloro-7-(methylamino)-1,6-naphthyridin-3-yl]-4-methyl-phenyl]-2-(1-fluorocyclopropyl)pyridine-4-carboxamide]	100 to 500 nM
CNc1ncc2cc(-c3cc(NC(=O)c4ccnc(C(C)(C)C#N)c4)cnc3C)cnc2c1Cl [Compound 270, N-[5-[8-chloro-7-(methylamino)-1,6-naphthyridin-3-yl]-6-methyl-3-pyridyl]-2-(1-cyano-1-methyl-ethyl)pyridine-4-carboxamide]	≥ 500 nM
CNc1ncc2cc(-c3cc(NC(=O)c4ccnc(C5(F)CC5)c4)ccc3C)cnc2c1C#N [Compound 271, N-[3-[8-cyano-7-(methylamino)-1,6-naphthyridin-3-yl]-4-methyl-phenyl]-2-(1-fluorocyclopropyl)pyridine-4-carboxamide]	20 to 100 nM
CNc1cc2c(C#N)cc(-c3cc(NC(=O)c4ccnc(C5(F)CC5)c4)ccc3C)cc2cn1 [Compound 272, N-(3-(5-cyano-3-(methylamino)isoquinolin-7-yl)-4-methylphenyl)-2-(1-fluorocyclopropyl)isonicotinamide]	20 to 100 nM
CNc1cc2c(C#N)cc(-c3cc(NC(=O)c4ccnc(C(F)(F)F)c4)ccc3C)cc2cn1 [Compound 273, N-(3-(5-cyano-3-(methylamino)isoquinolin-7-yl)-4-methylphenyl)-2-(trifluoromethyl)isonicotinamide]	100 to 500 nM
Cc1ncc(NC(=O)c2cc(C(F)(F)F)ccn2)cc1-c1ccc2c3c(ncc2c1)NC(=O)C3 [Compound 274, N-(6-methyl-5-(2-oxo-2,3-dihydro-1H-pyrrolo[2,3-c]isoquinolin-7-yl)pyridin-3-yl)-4-(trifluoromethyl)picolinamide]	< 20 nM
Cc1ccc(NC(=O)c2cc(C(C)(C)C#N)ccn2)cc1-c1ccc2c3c(ncc2c1)NC(=O)C3 [Compound 275, 4-(2-cyanopropan-2-yl)-N-(4-methyl-3-(2-oxo-2,3-dihydro-1H-pyrrolo[2,3-c]isoquinolin-7-yl)phenyl)picolinamide]	20 to 100 nM
Cc1ccc(NC(=O)c2ccnc(C(C)(C)F)c2)cc1-c1ccc2c3c(ncc2c1)NC(=O)C3 [Compound 276, 2-(2-fluoropropan-2-yl)-N-(4-methyl-3-(2-oxo-2,3-dihydro-1H-pyrrolo[2,3-c]isoquinolin-7-yl)phenyl)isonicotinamide]	< 20 nM
